Here are results for four compounds from US20230248772A1, “PRODUCTS AND METHODS USING A PLATELET-DERIVED HEMOSTATIC AGENT FOR CONTROLLING BLEEDING AND IMPROVING HEALING” (Cellphire, Inc., priority 2015, published 2023).

Positions of bridges follow the written chain, without caps; N, C: chain ends. Non-standard residues stand in square brackets, D forms with d. Residues, ends and D or L forms follow the SMILES beside them. hArg = N=C(N)NCCCC[C@H](N)C(=O)O; Mpa = O=C(O)CCS

One data set concerns thrombin. Description: Thrombin generation in plasma. The settings on record: PPP from patients taking baby aspirin daily; normal range about 66-166 nM; FIG. 18. In kind it is biochemical, human. As for the experimental part: Reagent Preparation. For thrombin generation, the following materials were used from manufacturers, as follows: FluCa Kit (Diagnostica Stago, Cat. No. 86197), Thrombin calibrator (Diagnostica Stago, Cat. No. 86197), PRP Reagent (Diagnostica Stago, Cat. No. 86196), OCTOPLAS®, a solvent detergent treated human pooled plasma (Octapharma, Cat. No. 8-68209-952-04). All frozen reagents were thawed in a 37° C. water bath before use. All reagents were rehydrated with sterile water using the volume printed on the reagent labels. Approximately 2 min after rehydration, the reagents were mixed by inverting vials 5 times, so no chunks or powder left; vortexing was not used. […]
Sample Analysis - Plate preparation and testing. For experiments containing thrombosomes, a thrombosomes dilution series was generated (dilutions of 194.4 K, 64.8 K, 21.6 K, and 7.2 K per µL were typically used; cell counts are determined by flow cytometry) for each the experimental thrombosomes and the reference thrombosomes. […] The plate was then incubated in the Fluoroskan Ascent 96 well fluorescent plate reader (Thrombinoscope) (ThermoFisher Scientific) for 10 minutes. […] The plate fluorescence was monitored for 75 minutes at an interval of 20 seconds and a temperature of 40-41° C.
The effect of aspirin treatment (concentration) on thrombin generation was measured. […]

The next data set deals with NOD/SCID mice. Description: Tail-snip bleed model in clopidogrel-treated mice. The settings on record: ~3 times the clinical dose of clopidogrel for 5 days; untreated 9 minutes. In kind it is in vivo, mouse. On the procedure: The mouse was treated with clopidogrel for 5 days. The mouse was anesthetized, the tail end was snipped off followed by thrombosomes being immediately administered. The time from tail snip to tail stop bleeding was recorded by visual inspection.
NOD/SCID mice were treated with ~ 3 times the clinical dose of clopidogrel for 5 days then assessed in the tail-snip bleed model. The bleed time (min) was extended to 17.8 minutes with clopidogrel treatment verses untreated at 9 minutes (data not shown).

The test system of another data set is platelets. The data set can be described thus: Transmission light aggregometry, collagen-induced platelet aggregation in PRP. Type of data set: cell-based. The settings on record: collagen 10 µg/mL, all concentrations tested, FIG. 1. From the text: Plasma samples with platelet or thrombosomes or combination of both are loaded into cuvettes and placed into the aggregometry chambers. The chambers warm the sample and provide constant stirring. The initiation of aggregation can be done by multiple types of […] agents not limited to thrombin, ADP, collagen and any agent known to stimulate platelet aggregation. The samples can also have been taken as ex-vivo, or in-vitro supplemented with inhibitors. The instrument begins the assay by first recording the light transmission previous to stimulation for 2 minutes. The stimulant of interest is then introduced by the technician and the change in light transmission is recorded over time. The increase in light transmission corresponds to increase in platelet aggregation.
The aggregation of platelets (in platelet rich plasma) was evaluated using transmission light aggregometry. […] (FIG. 1).

The next data set deals with whole blood. The data set can be described thus: T-TAS AR chip occlusion of whole blood under shear. Type of data set: cell-based. From the text: (§1) Evaluation by T-TAS® using an AR chip. AR chips are characterized by a single channel containing collagen and tissue factor; they can be used to analyze clotting and platelet function.
A further data set deals with platelet rich plasma. The data set can be described thus: T-TAS flow system occlusion of platelet rich plasma (collagen and tissue factor coated channel). In kind it is cell-based. Particulars: untreated 18.43.
Text: as §1

The conditions of data set [1]: cited from earlier work.

`CC(=O)Oc1ccccc1C(=O)O` [aspirin]: the “peak thrombin of aspirin plasma in absence of thrombosomes” value in the data set with thrombin is “about 45 nM”.

Take `COC(=O)[C@H](c1ccccc1Cl)N1CCc2sccc2C1` [clopidogrel]: in the data set with NOD/SCID mice, the bleed time stood at 17.8 min.

For the compound `N=C(N)NCCCC[C@@H]1NC(=O)CCSSC[C@@H](C(N)=O)NC(=O)[C@@H]2CCCN2C(=O)[C@H](Cc2c[nH]c3ccccc23)NC(=O)[C@H](CC(=O)O)NC(=O)CNC1=O` [eptifibatide] ([Mpa][hArg]GDWPC-NH2; disulfide 1-7), in the data set on platelets, the collagen-induced platelet aggregation result was “completely inhibited”. The “occlusion time of whole blood on T-TAS AR Chip” value with whole blood (6 µM eptifibatide, untreated whole blood occluded at 8 minutes, FIG. 2) was found to be 16 min. For the same compound, the “effect on occlusion time of whole blood on T-TAS AR Chip” value with whole blood (eptifibatide at various concentrations) is “dose-dependent manner”. The “occlusion time of platelet rich plasma” value in the data set with platelet rich plasma (9 µM eptifibatide, FIGS. 10A, 10B) is “over 30 minutes”. In addition, in data set [1] (IV 180 µg/kg bolus followed by 2 µg/kg/min continuous infusion, typical), the blood concentration was 1000 to 2000 nM. Further, in data set [1] (generally), the “time for bleeding time to return to normal after drug stoppage” value is at most 1 h.

With `CCCCS(=O)(=O)N[C@@H](Cc1ccc(OCCCCC2CCNCC2)cc1)C(=O)O` [tirofiban], in the data set on platelet rich plasma (100 ng/mL tirofiban, FIGS. 9A, 9B), the “occlusion time of platelet rich plasma” value was “no occlusion”.
